Source: patent US20250051347A1, “BIFUNCTIONAL CHIMERIC HETEROCYCLIC COMPOUND AND USE THEREOF AS ANDROGEN RECEPTOR DEGRADER” (Hinova Pharmaceuticals, Inc., priority 2021, published 2025)
Where two headings read alike, the source gives them in different places.

Assays:
[1] = target: T1, androgen receptor (AR) splicing variant AR-v7 (Homo sapiens, UniProt P10275); assay: Degradation activity on androgen receptor splicing variant AR-v7 in 22RV1 cells (ELISA); format: cell-based; conditions: AR-v7 degradation in 22RV1 cells, 48 h, class symbols
T1 construct: The degradation activity of compounds on AR-v7 in 22RV1 cells; host or cells: 22RV1 cells
T1 sequence (P10275 1-644 isoform P10275-3): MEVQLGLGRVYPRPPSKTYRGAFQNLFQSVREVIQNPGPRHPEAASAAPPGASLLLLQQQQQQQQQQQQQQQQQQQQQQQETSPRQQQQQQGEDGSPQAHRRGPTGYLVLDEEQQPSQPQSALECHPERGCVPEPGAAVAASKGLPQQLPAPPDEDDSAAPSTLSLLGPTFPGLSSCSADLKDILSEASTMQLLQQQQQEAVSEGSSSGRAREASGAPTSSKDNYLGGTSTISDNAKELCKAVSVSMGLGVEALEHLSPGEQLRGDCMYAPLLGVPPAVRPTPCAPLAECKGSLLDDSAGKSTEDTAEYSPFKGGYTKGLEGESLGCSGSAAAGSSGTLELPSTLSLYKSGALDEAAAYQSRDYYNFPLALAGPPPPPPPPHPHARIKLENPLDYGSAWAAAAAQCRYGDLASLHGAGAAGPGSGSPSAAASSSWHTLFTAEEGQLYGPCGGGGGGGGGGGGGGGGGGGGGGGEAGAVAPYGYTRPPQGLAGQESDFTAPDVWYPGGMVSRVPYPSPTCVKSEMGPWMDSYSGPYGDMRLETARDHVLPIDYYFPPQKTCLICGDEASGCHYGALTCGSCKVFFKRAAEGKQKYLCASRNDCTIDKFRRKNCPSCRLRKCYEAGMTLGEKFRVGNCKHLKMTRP

[2] = Homo sapiens, 22Rv1, 144 h, read-out: 22RV1 IC50 (nM), 22RV1 cells, 6 days culture, CCK-8, OD 450 nm

Row | DC50 [1] [µM] | IC50 (22RV1 cells; [2]) [nM] | IC50 (22RV1 cells; read-out: 22RV1 IC50, 22RV1 cells, 6 days culture, CCK-8, OD 450 nm) [nM] | SMILES
1 | < 0.01 | 9 | – | CC(C)(c1ccc(OCc2ccnc(N3CC4(COC4)C3)n2)c(F)c1)c1ccc(O[C@H]2C[C@H](Nc3ccc4c(c3)C(=O)N(C3CCC(=O)NC3=O)C4=O)C2)c(F)c1 (stereo partly drawn) [Example 365, 5-(((1r,3r)-3-(4-(2-(4-((2-(2-oxa-6-azaspiro[3.3]heptane-6-yl)pyrimidin-4-yl)methoxy)-3-fluorophenyl)isopropan-2-yl)-2-fluorophenoxy)cyclobutyl)amino)-2-(2,6-dioxopiperidin-3-yl)isoindolin-1,3-dione]
2 | < 0.01 | 5 | – | CC(C)(c1ccc(OCc2ccnc(-c3nnco3)n2)cc1)c1ccc(O[C@H]2C[C@H](Nc3ccc4c(c3)C(=O)N(C3CCC(=O)NC3=O)C4=O)C2)cc1 (stereo partly drawn) [Example 468, 5-(((1r,3r)-3-(4-(2-(4-((2-(1,3,4-oxadiazol-2-yl)pyrimidin-4-yl)methoxy)phenyl)propan-2-yl)phenoxy)cyclobutyl)amino)-2-(2,6-dioxopiperidin-3-yl)isoindolin-1,3-dione]
3 | < 0.01 | 15 | – | CC(C)(c1ccc(OCc2ccnc(N3CC4(CCOC4)C3)n2)cc1)c1ccc(O[C@H]2C[C@@H](Nc3ccc4c(c3)C(=O)N(C3CCC(=O)NC3=O)C4=O)C2)cc1 (stereo partly drawn) [Example 88, 5-(((1s,3s)-3-(4-(2-(4-((2-(6-oxa-2-azaspiro[3.4]octan-2-yl)pyrimidin-4-yl)methoxy)phenyl)propan-2-yl)phenoxy)cyclobutyl)amino)-2-(2,6-dioxopiperidin-3-yl)isoindolin-1,3-dione]
4 | < 0.01 | – | 5 | C[C@@H](O)c1cnc(Oc2ccc(C3(c4ccc(OC5CC(Nc6ccc7c(c6)C(=O)N(C6CCC(=O)NC6=O)C7=O)C5)cc4)CCCC3)cc2)cn1 (stereo partly drawn) [Example 178, 2-(2,6-dioxopiperidin-3-yl)-5-(((1r,3r)-3-(4-(1-(4-((5-(1-hydroxylethyl)pyrazin-2-yl)oxy)phenyl)cyclopentyl)phenoxy)cyclobutyl)amino) isoindolin-1,3-dione]
5 | < 0.01 | 5 | – | CC(C)(c1ccc(OCc2ccnc(-c3ncon3)n2)cc1)c1ccc(O[C@H]2C[C@H](Nc3ccc4c(c3)C(=O)N(C3CCC(=O)NC3=O)C4=O)C2)cc1 (stereo partly drawn) [Example 281]
6 | < 0.01 | 5 | – | Cc1nccc(Oc2ccc(C(C)(C)c3ccc(O[C@H]4C[C@H](Nc5ccc6c(c5)C(=O)N(C5CCC(=O)NC5=O)C6=O)C4)cc3)cc2)n1 (stereo partly drawn) [Example 197]
7 | < 0.01 | 10 | – | CC(C)(c1ccc(OCc2ccnc(-c3cn[nH]c3)n2)cc1)c1ccc(O[C@H]2C[C@@H](Nc3ccc4c(c3)C(=O)N(C3CCC(=O)NC3=O)C4=O)C2)cc1 (stereo partly drawn) [Example 273]
8 | < 0.01 | 0.2 | – | CC(O)c1ccc(Oc2ccc(C3(c4ccc(O[C@H]5C[C@H](Nc6ccc7c(c6)C(=O)N(C6CCC(=O)NC6=O)C7=O)C5)cc4)CCOCC3)cc2)nn1 (stereo partly drawn) [Example 105]
9 | < 0.01 | 6 | – | CC(C)(c1ccc(OCc2ccnc(OC3COC3)n2)cc1)c1ccc(O[C@H]2C[C@H](Nc3ccc4c(c3)C(=O)N(C3CCC(=O)NC3=O)C4=O)C2)cc1 (stereo partly drawn) [Example 369, 2-(2,6-dioxopiperidin-3-yl)-5-(((1r,3r)-3-(4-(2-(4-((2-(oxetane-3-yloxy)pyrimidin-4-yl)methoxy)phenyl)isopropan-2-yl)phenoxy)cyclobutyl)amino) isoindolin-1,3-dione]
10 | < 0.01 | 9 | – | Cc1nnc(Oc2ccc(C(C)(C)c3ccc(O[C@H]4C[C@H](Nc5ccc6c(c5)C(=O)N(C5CCC(=O)NC5=O)C6=O)C4)cc3)cc2)o1 (stereo partly drawn) [Example 429, 2-(2,6-dioxopiperidin-3-yl)-5-((1r,3r)-3-(4-(2-(4-((5-methyl-1,3,4-oxadiazol-2-yl)oxy)phenyl)propan-2-yl)phenoxy)cyclobutyl)aminoisoindol-1,3-dione]
11 | < 0.01 | 16 | – | CC(C)C(=O)c1ncc(Oc2ccc(C(C)(C)c3ccc(O[C@H]4C[C@H](Nc5ccc6c(c5)C(=O)N(C5CCC(=O)NC5=O)C6=O)C4)cc3)cc2)cn1 (stereo partly drawn) [Example 291]
12 | < 0.01 | 2 | – | CC(=O)c1ncc(Oc2ccc(C3(c4ccc(O[C@H]5C[C@H](Nc6ccc7c(c6)C(=O)N(C6CCC(=O)NC6=O)C7=O)C5)cc4)CCCC3)cc2)cn1 (stereo partly drawn) [Example 135]
13 | < 0.01 | 9 | – | CCC(CC)(c1ccc(Oc2ccc(C(C)O)nn2)cc1)c1ccc(O[C@H]2C[C@@H](Nc3ccc4c(c3)C(=O)N(C3CCC(=O)NC3=O)C4=O)C2)cc1 (stereo partly drawn) [Example 430]
14 | < 0.01 | 7 | – | CC(C)(c1ccc(OCc2cccc(-c3nnco3)n2)cc1)c1ccc(O[C@H]2C[C@H](Nc3ccc4c(c3)C(=O)N(C3CCC(=O)NC3=O)C4=O)C2)cc1 (stereo partly drawn) [Example 470, 5-(((1r,3r)-3-(4-(2-(4-((6-(1,3,4-oxadiazol-2-yl)pyridin-2-yl)methoxy)phenyl)propan-2-yl)phenoxy)cyclobutyl)amino)-2-(2,6-dioxopiperidin-3-yl)isoindolin-1,3-dione]
15 | < 0.01 | 5 | – | COc1nccc(COc2ccc(C3(c4ccc(O[C@H]5C[C@H](Nc6ccc7c(c6)C(=O)N(C6CCC(=O)NC6=O)C7=O)C5)cc4)CCC3)cc2)n1 (stereo partly drawn) [Example 357, 2-(2,6-dioxopiperidin-3-yl)-5-(((1r,3r)-3-(4-(1-(4-((2-methoxypyrimidin-4-yl)methoxy)phenyl)cyclobutyl)phenoxy)cyclobutyl)amino)isoindolin-1,3-dione]
16 | < 0.01 | 13 | – | CC(=O)c1nccc(COc2ccc(C(C)(C)c3ccc(OC[C@H](CCCl)Nc4ccc5c(c4)C(=O)N(C4CCC(=O)NC4=O)C5=O)cc3)cc2)n1 (stereo partly drawn) [Example 306]
17 | < 0.01 | 10 | – | Cn1cc(-c2nccc(COc3ccc(C(C)(C)c4ccc(O[C@H]5C[C@@H](Nc6ccc7c(c6)C(=O)N(C6CCC(=O)NC6=O)C7=O)C5)cc4)cc3)n2)cn1 (stereo partly drawn) [Example 270]
18 | 0.011 to 0.1 | 8 | – | CC1CN(c2nccc(COc3ccc(C(C)(C)c4ccc(OC5CC(Nc6ccc7c(c6)C(=O)N(C6CCC(=O)NC6=O)C7=O)C5)cc4)cc3)n2)CC(C)N1 (stereo not drawn) [Example 452, 5-((3-(4-(2-(4-((2-(3,5-dimethylpiperazin-1-yl)pyrimidin-4-yl)methoxy)phenyl)propan-2-yl)phenoxy)cyclobutyl)amino)-2-(2,6-dioxopiperidin-3-yl)isoindolin-1,3-dione]
19 | 0.011 to 0.1 | 160 | – | CC(C)(c1ccc(OCCCNc2ccc3c(c2)C(=O)N(C2CCC(=O)NC2=O)C3=O)cc1)c1ccc(OCc2nc(C(N)=O)no2)cc1 (stereo not drawn) [Example 143, 5-((4-(2-(4-(3-((2-(2,6-dioxopiperidin-3-yl)-1,3-dioxoisoindolin-5-yl)amino)propoxy)phenyl)propan-2-yl)phenoxy)methyl)-1,2,4-oxadiazol-3-carbonylamine]
20 | < 0.01 | 1 | – | CC(=O)c1ccc(Oc2ccc(C3(c4ccc(O[C@H]5C[C@H](Nc6ccc7c(c6)C(=O)N(C6CCC(=O)NC6=O)C7=O)C5)cc4)CCCC3)cc2)nn1 (stereo partly drawn) [Example 104]
21 | 0.011 to 0.1 | 30 | – | CC(C)(c1ccc(OCCCNc2ccc3c(c2)C(=O)N(C2CCC(=O)NC2=O)C3=O)cc1)c1ccc(OCc2ccnc(OC3CC3)n2)cc1 (stereo not drawn) [Example 70, 5-((3-(4-(2-(4-((2-cyclopropyloxypyrimidin-4-yl)methoxy)phenyl)propan-2-yl)phenoxy)propyl)amino)-2-(2,6-dioxopiperidin-3-yl)isoindolin-1,3-dione]
